Results as given in paper PMC12036578, “Expression and molecular characterization of an intriguing hyaluronan synthase (HAS) from the symbiont “Candidatus Mycoplasma liparidae” in snailfish” (PeerJ, 2025).
Like-named read-outs stand apart in the source and are kept apart here.

What was measured:
snHAS [1] = assay: HA formation by HABP-HRP HA detection kit (TMB, OD450), Michaelis-Menten fit; type: biochemical, Candidatus Mycoplasma liparidae; details: 15 mM MgCl2, 50 mM PBS, 5 mM DTT, 37 °C, 30 µM enzyme
snHAS [2] = assay: as above; type: biochemical, Candidatus Mycoplasma liparidae; details: 15 mM MgCl2, 50 mM PBS, 5 mM DTT, 37 °C, 30 µM enzyme, read-out: snHASE173D
Excerpt: HA formation by HABP-HRP HA detection kit (TMB, OD450), Michaelis-Menten fit on snHAS

| Structure (SMILES) | Km (snHAS [1]; 1 mM UDP-GlcNAc fixed) [µM] | Km (snHAS [2]; 1 mM UDP-GlcNAc fixed) [µM] | Km (snHAS [1]; 1 mM UDP-GlcA fixed) [µM] | Km (snHAS [2]; 1 mM UDP-GlcA fixed) [µM] |
| --- | --- | --- | --- | --- |
| O=C(O)[C@H]1O[C@H](OP(=O)(O)OP(=O)(O)OC[C@H]2O[C@@H](n3ccc(=O)[nH]c3=O)[C@H](O)[C@@H]2O)[C@H](O)[C@@H](O)[C@@H]1O [UDP-GlcA] | 39 ± 5 | 210 ± 20 |  |  |
| CC(=O)N[C@H]1[C@@H](OP(=O)(O)OP(=O)(O)OC[C@H]2O[C@@H](n3ccc(=O)[nH]c3=O)[C@H](O)[C@@H]2O)O[C@H](CO)[C@@H](O)[C@@H]1O [UDP-GlcNAc] |  |  | 258 ± 45 | 410 ± 70 |
